Data as given in patent US20240245664A1, “METHODS OF USING USP15 INHIBITORS” (The Curators of the University of Missouri, priority 2021, published 2024).
“Also recorded” adds a separate entry of the source. Each block holds one compound with its values, some of them ahead of it. Residues, ends and D or L forms follow the SMILES beside them. *: point of attachment. Cbz = O=C(OCc1ccccc1)*

Legend:
[1] = tested on: cysteine protease DUBs, including USP15; details: cited from earlier work
[2] = tested on: U266 cells; assay: Neo-substrate degradation in U266 cells, PR-619 with lenalidomide, immunoblot; type: cell-based; details: PR-619 2 μM 1 h, lenalidomide 0, 2 and 10 μM 6 h
Protocol: FIG. 6L depicts a Western blot. […] Cell extracts were analyzed by SDS-PAGE and immunoblotting with indicated antibodies.

[3] = tested on: GS; details: Jurkat cells, treated 4 h; cited from earlier work
[4] = tested on: GS; assay: Glutamine-induced GS ubiquitylation, TUBE2 pulldown and immunoblot in MCF7 cells; type: cell-based; details: MCF7 cells starved of glutamine 24 h; 40 μM NSC632839 or 20 μM PR-619 0.5 h, then 4 mM glutamine 2 h
Protocol: FIG. 1D depicts a Western blot. MCF7 cells, starved of glutamine for 24 h, were treated with MG132 (10 μM) and/or 40 μM NSC632839, 20 μM PR-619 for 0.5 h, followed by 4 mM glutamine treatment for 2 h. Total ubiquitylated proteins were purified using TUBE2-agarose, and then analyzed by IB with indicated antibodies. The relative ratio of ubiquitylated GS, GS(Ub)n to input GS, normalized to that of glutamine-treated cells in lane 2, are shown.

[5] = tested on: RPMI8226 cells; assay: RPMI8226 cell number/viability, PR-619 with lenalidomide, Trypan blue; type: cell-based; details: PR-619 1 μM with lenalidomide, 4 days
Excerpt: FIG. 6G depicts total cell number after different treatment conditions. […] Error bars represent the SEM of triplicates (P<0.003 by t test).

[6] = biological target: T1, USP15 (Homo sapiens, UniProt Q9Y4E8); assay: In vitro deubiquitylation assay with recombinant USP15 (rUSP15); details: for activity of USP15 (deubiquitylation of polyubiquitylated GSPT1): 37° C., 0.5 h
T1 sequence (Q9Y4E8 1-981): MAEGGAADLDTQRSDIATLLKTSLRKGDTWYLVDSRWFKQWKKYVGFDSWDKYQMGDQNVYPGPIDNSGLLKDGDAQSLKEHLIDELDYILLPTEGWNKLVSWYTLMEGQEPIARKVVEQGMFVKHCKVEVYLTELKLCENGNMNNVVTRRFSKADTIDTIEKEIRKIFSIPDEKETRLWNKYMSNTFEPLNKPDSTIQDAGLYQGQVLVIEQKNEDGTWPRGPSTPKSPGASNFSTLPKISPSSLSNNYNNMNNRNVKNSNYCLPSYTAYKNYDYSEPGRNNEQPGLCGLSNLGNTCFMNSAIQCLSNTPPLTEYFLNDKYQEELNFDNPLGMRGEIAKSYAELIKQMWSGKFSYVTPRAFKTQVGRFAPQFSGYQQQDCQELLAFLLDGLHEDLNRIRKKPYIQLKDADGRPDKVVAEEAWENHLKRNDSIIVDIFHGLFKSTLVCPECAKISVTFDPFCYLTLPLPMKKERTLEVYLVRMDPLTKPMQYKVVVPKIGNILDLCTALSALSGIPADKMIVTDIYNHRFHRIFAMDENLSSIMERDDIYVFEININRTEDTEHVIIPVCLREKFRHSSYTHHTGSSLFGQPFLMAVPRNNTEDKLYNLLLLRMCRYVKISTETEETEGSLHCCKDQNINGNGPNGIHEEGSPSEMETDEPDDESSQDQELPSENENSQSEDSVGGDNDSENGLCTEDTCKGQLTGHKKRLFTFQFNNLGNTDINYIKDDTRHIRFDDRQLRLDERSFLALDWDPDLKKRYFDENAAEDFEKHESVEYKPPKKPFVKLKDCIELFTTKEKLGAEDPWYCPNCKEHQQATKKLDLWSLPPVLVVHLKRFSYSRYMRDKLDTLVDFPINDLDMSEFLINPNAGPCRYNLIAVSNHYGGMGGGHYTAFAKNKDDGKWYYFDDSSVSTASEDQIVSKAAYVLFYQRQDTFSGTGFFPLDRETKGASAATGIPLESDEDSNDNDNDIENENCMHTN
Excerpt: GSPT1(Ub)n: polyubiquitylated GSPT1.
SE and LE: short and long exposures. GSPT1(Ub)n: polyubiquitylated GSPT1.

[7] = tested on: GS; assay: Endogenous GS protein level by immunoblot in glutamine-treated MCF7 cells; type: cell-based; details: MCF7 cells starved of glutamine 24 h; inhibitor 0.5 h, then 4 mM glutamine 10 h
Protocol: FIG. 1E depicts a Western blot. MCF7 cells, starved of glutamine for 24 h, were treated with NSC632839 for 0.5 h, followed by 4 mM glutamine treatment for 10 h. Cell extracts were analyzed by IB. The relative ratio of GS:Actin is shown.
FIG. 1F depicts a Western blot. MCF7 cells, starved of glutamine for 24 h, were treated with PR-619 for 0.5 h, followed by 4 mM glutamine treatment for 10 h. Cell extracts were analyzed by IB. The relative ratio of GS:Actin is shown.

[8] = tested on: GS; assay: Rescue of endogenous GS protein levels in USP15-KO 293FT cells, immunoblot; type: cell-based; details: 2 μM MLN4924 or 2 mM MSO
Protocol: Cell extracts were analyzed by IB with the indicated antibodies.

[9] = tested on: GS; assay: Glutamine-induced GS degradation in H1299 cells co-treated with DUB inhibitor and MLN4924; type: cell-based; details: 2 μM MLN4924 with NSC632839 or PR-619, 4 mM glutamine 8 h
Protocol: FIG. 1G depicts a Western blot. […] Cell extracts were analyzed by IB. The relative ratio of GS:Actin is shown.
FIG. 1H depicts a Western blot. […] Cell extracts were analyzed by IB. The relative ratio of GS:Actin is shown.

[10] = tested on: GSPT1; assay: CC-885-induced GSPT1 ubiquitylation and degradation in USP15-/- 293FT cells with inhibitors
[11] = tested on: GS; assay: GS ubiquitylation in USP15-/- 293FT cells, TUBE2 pulldown; type: cell-based; details: for accumulation of ubiquitylated GS under CB-5083 with co-treatment: pre-treated 2 μM MLN4924 or 2 mM MSO 0.5 h, then CB-5083 6 h
Excerpt: FIG. 3B depicts a Western blot. […] Total ubiquitylated proteins were purified using TUBE2-agarose.

[12] = tested on: GS; assay: GS stability in mTOR-shRNA 293FT cells treated with MLN4924 or MSO; type: cell-based; details: mTOR-shRNA TRIPZ_3 293FT cells, treated 14 h
Protocol: Cells were treated with different concentrations of MLN4924 for 14 h. Cell extracts were analyzed by IB with the indicated antibodies.
Cells were treated with different concentrations of MSO (G) for 14 h. Cell extracts were analyzed by IB with the indicated antibodies.

[13] = tested on: GS; assay: Glutamine-induced GS degradation in glutamine-starved H1299 cells with Torin1 and CB5083; type: cell-based
Protocol: FIG. 8A depicts a Western blot. Glutamine-starved H1299 cells, pre-treated with 250 nM Torin1 and 10 μM CB5083 for 0.5 h, were stimulated with 4 mM glutamine for 4 h. Cell extracts were analyzed by IB with the indicated antibodies.

[14] = tested on: LN229 cells; details: no glutamine, MSO 2 mM, 5 days
Protocol: FIG. 3E depicts quantification of cell viability. […] An equal number of cells (1×10^6 cells in 10-cm plates) were then shifted to medium without glutamine in the presence (+) or absence (−) of the GS inhibitor MSO (2 mM) for 5 days, after which cell viability was quantified by staining with 0.4% Trypan blue. Cell viability was normalized to MSO-untreated control (−), which was set to 100%.

[15] = tested on: USP15; assay: USP15 S229 phosphorylation by mass spectrometry in 293FT cells; type: cell-based; details: 250 nM Torin1 16 h vs DMSO
Protocol: FIG. 10C depicts the phosphorylation peptide abundance calculated by phosphorylated peptides/(phosphorylated peptides+unmodified peptides)*100%. The abundance of S229 phosphorylation (P-S229) was calculated and represented as mean±SD; n=2 per group (p=0.01035 by t test).
To map the phosphorylation sites of USP15, which has 32 potential serine/threonine phosphorylation sites reported in ‘PhosphoSitePlus’ with the most prevalent serine 229, USP15^Flag was immune-purified from 293FT cells treated with DMSO or 250 nM Torin1 for 16 h and analyzed by MS analysis. […] Moreover, it represents an mTOR consensus sequence motif S/T-P (where S is serine; T is threonine; and P is proline) (FIG. 10B). […] Thus, the MS data were consistent with the other results, showing that USP15 was phosphorylated at serine in an mTORC1-dependent manner (FIG. 7B-7C).
MS analysis to identify the phosphorylation sites of USP15 was done at the Charles W. Gehrke proteomics center—University of Missouri, as described previously (Peterson T R, et al., Cell. 2009; 137(5):873-86. Epub 2009/05/19).

[16] = tested on: mTORC1; assay: Glutamine-induced serine phosphorylation of USP15^Flag and USP15-GS binding, IP in 293FT cells; type: cell-based
Protocol: FIG. 7B depicts a Western blot. 293FT cells, transfected with CT or USP15^Flag plasmid for 24 h, were grown in complete medium (C; 2 mM glutamine) or starved of glutamine for 24 h, then treated with Torin1 for 0.5 h, followed by 4 mM glutamine treatment for 1-2 h. Cell extracts were immunoprecipitated with anti-Flag. The relative ratios of phosphorylated serine USP15^Flag to total input USP15^Flag and endogenous GS interacted with USP15^Flag to input GS, normalized to that of untreated cells in lane 3, are shown.

activity of USP15 (deubiquitylation of polyubiquitylated GSPT1) ([6]; PR-619 100 μM): completely inhibited
Compound: N#CSc1cc(SC#N)c(N)nc1N [PR-619]
inhibition of DUB activity (previous study) [1]: can inhibit the activity of almost all cysteine protease DUBs, including USP15 | degradation of neo-substrates on co-treatment with lenalidomide [2]: significantly promoted degradation of neo-substrates | GS ubiquitylation (SILAC ubiquitinome) [3]: decreased GS ubiquitylation; also recorded: decreased the ubiquitination of GS | glutamine-induced ubiquitylation of GS [4]: promoted glutamine-induced ubiquitylation of GS | sensitization to lenalidomide (cell number/viability) [5]: sensitized resistant cell line RPMI8226 to lenalidomide | USP15 activity ([6]; PR-619 concentration range 1-20 μM): substantially suppressed USP15 activity in a dose-dependent manner | protein levels of endogenous GS [7]: decreased protein levels of endogenous GS

Compound: NS(=O)(=O)OC[C@@H]1C[C@@H](n2ccc3c(N[C@H]4CCc5ccccc54)ncnc32)C[C@@H]1O [MLN4924]
downregulation of endogenous GS protein levels in USP15-KO cells [8]: rescued | effect on action of DUB inhibitors on glutamine-induced GS degradation [9]: blocked the action of DUB inhibitors on glutamine-induced GS degradation | accumulation of polyubiquitylated GSPT1 (CC-885 with MG132 or CB-5083) in presence of MLN4924 ([10]; USP15-/- 293FT cells, 2 μM MLN4924): completely abolished | accumulation of ubiquitylated GS under CB-5083 with co-treatment [11]: but not in cells co-treated with MLN4924 and MSO | effect of mTOR depletion by shRNA on GS stability [12]: rescued the effect of mTOR depletion by shRNA on GS stability

Compound: CCN1C(=O)C=CC1=O [N-Ethylmaleimide]
activity of USP15 (deubiquitylation of polyubiquitylated GSPT1) ([6]; NEM 20 mM (FIG. 5B legend)): completely inhibited

Compound: Cc1ccc(/C=C2\CNC/C(=C\c3ccc(C)cc3)C2=O)cc1.Cl [NSC632839]
glutamine-induced ubiquitylation of GS [4]: promoted glutamine-induced ubiquitylation of GS | protein levels of endogenous GS [7]: decreased protein levels of endogenous GS

Compound: Cc1cc2c(C(N)=O)cccc2n1-c1nc2c(c(NCc3ccccc3)n1)COCC2 [CB-5083]
Torin-1-promoted glutamine-induced GS degradation with p97 inhibitor ([13]; H1299 cells, 10 μM CB5083 with 250 nM Torin1): blunted | accumulation of ubiquitylated GS ([11]; 0.5 mM glutamine, CB-5083 6 h): accumulation of ubiquitylated GS was observed

Compound: CC(C)C[C@@H](C=O)NC(=O)[C@H](CC(C)C)NC(=O)[C@H](CC(C)C)NC(=O)OCc1ccccc1 [MG132] (Cbz-Leu-Leu-Leu-aldehyde)
GS ubiquitylation (SILAC ubiquitinome) [3]: increased ubiquitylation of GS | CC-885-induced degradation of GSPT1 ([10]; USP15-/- 293FT cells co-treated with CC-885 and inhibitor): blocked | polyubiquitylated GSPT1 on co-treatment with CC-885 ([10]; USP15-/- 293FT cells, 10 μM CB-5083 or 20 μM MG132, 10 μM CC-885 3 h): polyubiquitylated GSPT1 was accumulated

Compound: CS(=N)(=O)CC[C@H](N)C(=O)O (stereo partly drawn) [MSO, L-Methionine sulfoximine]
downregulation of endogenous GS protein levels in USP15-KO cells [8]: rescued | cell viability, combined with USP15 depletion by shRNAs ([14]; LN229 cells with USP15 shRNAs): synergistic inhibition of cell viability | cell viability ([14]; control LN229 cells): severe defect in cell viability | accumulation of ubiquitylated GS under CB-5083 with co-treatment [11]: but not in cells co-treated with MLN4924 and MSO | effect of mTOR depletion by shRNA on GS stability [12]: rescued the effect of mTOR depletion by shRNA on GS stability

Compound: CCC(=O)N1CCN(c2ccc(-n3c(=O)ccc4cnc5ccc(-c6cnc7ccccc7c6)cc5c43)cc2C(F)(F)F)CC1 [Torin1]
glutamine-induced GS degradation ([13]; glutamine-starved H1299 cells, 250 nM Torin1, 4 mM glutamine 4 h): promoted glutamine-induced GS degradation | S229 phosphorylation of USP15 [15]: significantly decreased | glutamine-induced phosphorylated serine USP15^Flag (P-Ser-USP15) ([16]; Torin1 0.5 h then 4 mM glutamine 1-2 h): substantially abolished | binding of USP15 to GS ([16]; Torin1-treated): significant reduction in binding of USP15 to GS
